Molecules are shown by their SMILES.

In general, IC50 refers to the midpoint of a concentration-inhibition curve.

The assay deals with RAW264.7. The assay can be described thus: Antiinflammatory activity in mouse RAW264.7 cells assessed as inhibition of LPS-stimulated NO production preincubated for 3 hrs followed by LPS stimulation and measured after 24 hrs by Griess reagent based assay. The format is functional, cell-based. (In general: Nitrite, measured by Griess reagent, commonly stands in for NO production.)

Consider `CC[C@H](C)/C=C(C)/C=C/[C@H]1Oc2c(-c3ccc(O)cc3)c[nH]c(=O)c2[C@H](O)[C@H]1C`, for which the IC50 was 17 µM.

For the compound `CC(/C=C/C=C(C)/C(O)=C1/C(=O)N/C(=C\c2ccc(O)cc2)C1=O)=C\[C@H](C)[C@@H](C)O`, the IC50 is 14 µM.

As for `CO[C@@H]1c2c(c(-c3ccc(O)cc3)c[nH]c2=O)O[C@H](/C=C/C(C)=C/[C@H](C)[C@@H](C)O)[C@@H]1C`, the IC50 worked out at 17 µM.

As for `CC[C@H](C)/C=C(C)/C=C/[C@H]1Oc2c(-c3ccc(O)cc3)c[nH]c(=O)c2[C@H](OC)[C@H]1C`, the IC50 was determined as 9.2 µM.

For the compound `CC[C@H](C)/C=C(C)/C=C/[C@H]1Oc2c(-c3ccc(O)cc3)c[nH]c(=O)c2[C@@H](O)[C@@H]1C`, the IC50 turned out to be 19 µM.

With `CO[C@@H]1c2c(c(-c3ccc(O)cc3)c[nH]c2=O)O[C@@H](/C=C/C(C)=C/[C@H](C)[C@@H](C)O)[C@@H]1C`, the IC50 was 15 µM.

For `CC(/C=C/C=C(C)/C(O)=C1/C(=O)N[C@H]([C@@H](O)c2ccc(O)cc2)C1=O)=C\[C@H](C)[C@@H](C)O`, the IC50 was > 20 µM.

Regarding `CC(/C=C/[C@@H]1Oc2c(-c3ccc(O)cc3)c[nH]c(=O)c2[C@@H](O)[C@H]1C)=C\[C@H](C)[C@@H](C)O`, the IC50 was > 20 µM.

In the case of `CC(/C=C/[C@@H]1Oc2c(-c3ccc(O)cc3)c[nH]c(=O)c2[C@@H](O)[C@H]1C)=C\[C@H](C)[C@H](C)O`, the IC50 is > 20 µM.

Regarding `CO[C@@H]1c2c(c(-c3ccc(O)cc3)c[nH]c2=O)O[C@@H](/C=C/C(C)=C/[C@H](C)[C@H](C)O)[C@@H]1C`, the IC50 came to 18 µM.

Regarding `CC[C@H](C)/C=C(C)/C=C/[C@H]1Oc2c(-c3ccc(O)cc3)c[nH]c(=O)c2[C@H](OC)[C@@H]1C`, the IC50 is > 20 µM.

As for `CC[C@H](C)/C=C(C)/C=C/[C@H]1Oc2c(-c3ccc(O)cc3)c[nH]c(=O)c2[C@H](O)[C@@H]1C`, the IC50 was > 20 µM.

For `CC(/C=C/[C@@H]1Oc2c(-c3ccc(O)cc3)c[nH]c(=O)c2[C@H](O)[C@H]1C)=C\[C@H](C)[C@@H](C)O`, the IC50 was > 20 µM.

As to `CC(/C=C/C=C(C)/C(O)=C1/C(=O)N[C@@H]([C@@H](O)c2ccc(O)cc2)C1=O)=C\[C@H](C)[C@@H](C)O`, the IC50 was > 20 µM.

On to `COc1ccc2c(c1)c(CC(=O)O)c(C)n2C(=O)c1ccc(Cl)cc1` [INDOMETHACIN], for which the IC50 amounted to 0.62 µM.

For the origin of these results see ChEMBL document CHEMBL5257049, “Interconvertible Pyridone Alkaloids from the Marine-Derived Fungus Penicillium oxalicum QDU1” (J Nat Prod, 2023).
